Data set [1] deals with T1, Dihydroorotate dehydrogenase (quinone), mitochondrial (Homo sapiens, UniProt Q02127). The conditions noted are these: dose 100.0 nM, time 30.0 min.
In data set [2] the target is T1, Dihydroorotate dehydrogenase (quinone), mitochondrial.
Description: Inhibition of human DHODH using dihydroorotate substrate preincubated for 30 mins followed by substrate addition by DCIP based microplate reader analysis
A further data set deals with L02. Kind of data set: cells. The class given is ADME, cell-based. The note with it: Homo sapiens, L02, 96 h.
A further data set in a line: physchem. The note with it: aqueous.
The test system of a further data set is Raji. Kind of data set: Antiproliferative activity against human Raji cells assessed as cell growth inhibition incubated for 96 hrs by MTT assay. It counts as functional, cell-based.
The nature of the next data set: in vitro. The note with it: human, L02 cells and Raji cells.
For another data set, the system named is HCT-116. Kind of data set: Antiproliferative activity against human HCT-116 cells assessed as cell growth inhibition incubated for 96 hrs by MTT assay. The conditions noted are these: HCT-116, 96 h. The class given is functional, cell-based.
Another data set concerns A-375. Kind of data set: Antiproliferative activity against human A-375 cells assessed as cell growth inhibition incubated for 96 hrs by MTT assay. The conditions noted are these: A-375, 96 h. The class given is functional, cell-based.
In a further data set the test system is A549. As to the kind of experiment: Antiproliferative activity against human A549 cells assessed as cell growth inhibition incubated for 96 hrs by MTT assay. The class given is functional, cell-based. The note with it: A549, 96 h.
The test system of the next data set is K562. As to the kind of experiment: Antiproliferative activity against human K562 cells assessed as cell growth inhibition incubated for 96 hrs by MTT assay. The class given is functional, cell-based. The conditions noted are these: K562, 96 h.
The subject of another data set is SK-MEL-28. Kind of data set: Antiproliferative activity against human SK-MEL-28 cells assessed as cell growth inhibition incubated for 96 hrs by MTT assay. The class given is functional, cell-based. The note with it: SK-MEL-28, 96 h.

Each structure is given as a SMILES string. ≈ marks a conversion by molar mass, not a printed value.

T1 sequence (Q02127 whole entry): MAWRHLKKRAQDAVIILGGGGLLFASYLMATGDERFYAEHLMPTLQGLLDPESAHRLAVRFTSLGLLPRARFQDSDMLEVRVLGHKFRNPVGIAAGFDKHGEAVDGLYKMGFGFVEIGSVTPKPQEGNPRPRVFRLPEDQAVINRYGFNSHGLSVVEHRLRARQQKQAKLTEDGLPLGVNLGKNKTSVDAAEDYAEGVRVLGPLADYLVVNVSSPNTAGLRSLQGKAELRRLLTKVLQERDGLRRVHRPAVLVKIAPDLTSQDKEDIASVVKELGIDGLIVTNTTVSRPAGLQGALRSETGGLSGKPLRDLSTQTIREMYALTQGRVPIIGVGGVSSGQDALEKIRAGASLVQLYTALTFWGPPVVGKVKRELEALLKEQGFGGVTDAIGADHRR
Description for L02: Cytotoxicity against human L02 cells assessed as cell growth inhibition incubated for 96 hrs by MTT assay
Description for in vitro: Selectivity index, ratio of IC50 for human L02 cells to IC50 for human Raji cells
Description for physchem: Aqueous solubility of compound by UPLC method

In data set [1], `COc1cccc(NC(=O)c2cc(F)c(NC(=O)/C(C#N)=C(/C)O)cc2OC(C)C)c1` yielded an inhibition of 21.3%.

In data set [2], `CCOc1cc(NC(=O)/C(C#N)=C(/C)O)c(F)cc1C(=O)Nc1c(F)cccc1Cl` returned an IC50 of 44.1 nM. Besides, the inhibition in [1] amounted to 63.8%.

Turning to `C/C(O)=C(\C#N)C(=O)Nc1cc(O[C@@H](C)C(F)(F)F)c(C(=O)Nc2c(Cl)cccc2Br)cc1F`, the figures for the IC50 (with L02; in the data set on Raji; in [2]) were 506 nM, 32.2 nM and 6.2 nM, respectively. Further, the solubility in “physchem” stood at 2900 µg/mL (≈ 5.14 mM). Further, the selectivity ratio in “in vitro” turned out to be 15.8. The same compound gave an inhibition in [1] of 94.4%.

In [1], `C/C(O)=C(\C#N)C(=O)Nc1cc(F)c(C(=O)Nc2c(F)cccc2Cl)cc1F` gave an inhibition of 26.4%.

In data set [2], `COc1cc(NC(=O)/C(C#N)=C(/C)O)c(F)cc1C(=O)Nc1c(F)cccc1Cl` registered an IC50 of 31.1 nM. In addition, the inhibition in data set [1] stood at 67.7%.

Compound `C/C(O)=C(\C#N)C(=O)Nc1ccc(C(=O)Nc2c(F)cccc2F)c(OC(C)C)c1` came in with an inhibition in data set [1] of 53.4%.

With `C/C(O)=C(\C#N)C(=O)Nc1cc(OC(C)C)c(C(=O)Nc2ccccc2F)cc1F`, the inhibition in [1] is 23%.

`CCOc1cc(NC(=O)/C(C#N)=C(/C)O)c(F)cc1C(=O)Nc1c(F)cccc1F`: in data set [1], the inhibition was 40.2%.

In data set [2], `CCOc1cc(NC(=O)/C(C#N)=C(/C)O)c(F)cc1C(=O)Nc1c(F)cccc1Br` had an IC50 of 40 nM. Moreover, in [1], the inhibition came to 72.7%.

On to `C/C(O)=C(\C#N)C(=O)Nc1cc(OC(C)C)c(C(=O)Nc2c(F)cccc2Br)cc1F`, for which the IC50 in the data set with L02 worked out at 2100 nM; in the data set with Raji, 347 nM; in data set [2], 18.2 nM. Also, the selectivity ratio in “in vitro” stood at 6.1. The compound also had an inhibition in data set [1] of 85.4%.

In turn, `C/C(O)=C(\C#N)C(=O)Nc1cc(OC(C)C)c(C(=O)Nc2ccccc2Br)cc1F` had an IC50 in data set [2] of 41.5 nM. For the same compound, in data set [1], the inhibition amounted to 68.5%.

`C/C(O)=C(\C#N)C(=O)Nc1cc(OC(C)C)c(C(=O)Nc2ccc(F)c(Cl)c2)cc1F`: the inhibition in [1] came out at 4.9%.

In the case of `CCOc1cc(NC(=O)/C(C#N)=C(/C)O)c(F)cc1C(=O)Nc1c(Cl)cccc1Cl`, the IC50 in the data set with L02 worked out at 2710 nM; in the data set with Raji it was 573 nM; in data set [2], 17.4 nM. Moreover, the selectivity ratio in the data set “in vitro” was 4.7. The compound further displayed an inhibition in data set [1] of 85.8%.

In data set [1], `C/C(O)=C(\C#N)C(=O)Nc1cc(OC(C)C)c(C(=O)Nc2ccc(F)cc2)cc1F` yielded an inhibition of 7.5%.

`COc1ccccc1NC(=O)c1cc(F)c(NC(=O)/C(C#N)=C(/C)O)cc1OC(C)C` registered an inhibition in data set [1] of 5.3%.

In data set [2], `COc1cc(NC(=O)/C(C#N)=C(/C)O)c(F)cc1C(=O)Nc1c(F)cccc1Br` came in with an IC50 of 29.5 nM. In data set [1], this compound returned an inhibition of 78.5%.

Turning to `COc1cc(NC(=O)/C(C#N)=C(/C)O)c(F)cc1C(=O)Nc1c(F)cccc1F`, the inhibition in data set [1] was found to be 27.4%.

Regarding `C/C(O)=C(\C#N)C(=O)Nc1cc(OC(C)C)c(C(=O)Nc2c(Cl)cccc2Cl)cc1F`, the IC50 in the data set on L02 came out at 2620 nM; in the data set with Raji it was 450 nM; in data set [2], 13.1 nM. Besides, the selectivity ratio in “in vitro” turned out to be 5.8. For the same compound, the inhibition in data set [1] is 89.4%.

Regarding `C/C(O)=C(\C#N)C(=O)Nc1cc(OC(C)C)c(C(=O)Nc2c(F)cccc2Cl)cc1F`, the IC50 in the data set with HCT-116 came to 7300 nM; with A-375, 1100 nM; in the data set with A549, 900 nM; with Raji, 300 nM; in data set [2], 22.4 nM; in the data set on K562, 2300 nM. Further, in the data set with SK-MEL-28, the IC50 turned out to be 300 nM. The compound also yielded a solubility in “physchem” of 465 µg/mL (≈ 1.03 mM). In data set [1], this compound returned an inhibition of 70.7%.

For the compound `C/C(O)=C(\C#N)C(=O)Nc1cc(O[C@@H](C)C(F)(F)F)c(C(=O)Nc2c(Br)cccc2Br)cc1F`, the IC50 with L02 came to 426 nM; with Raji, 35.1 nM; in data set [2] it was 7.3 nM. The solubility in the data set “physchem” was 2100 µg/mL (≈ 3.45 mM). The selectivity ratio in “in vitro” was 13.1. Moreover, in [1], the inhibition is 96.9%.

Regarding `C/C(O)=C(\C#N)C(=O)Nc1cc(O[C@@H](C)C(F)(F)F)c(C(=O)Nc2c(Cl)cccc2Cl)cc1F`, the IC50 in the data set with L02 came to 452 nM; with Raji, 32.1 nM; in data set [2], 5.7 nM. The compound also returned a solubility in the data set “physchem” of 2400 µg/mL (≈ 4.61 mM). Also, the selectivity ratio in the data set “in vitro” was determined as 14.1. Besides, the inhibition in data set [1] is 96.4%.

In data set [2], `C/C(O)=C(\C#N)C(=O)Nc1cc(OC(C)C)c(C(=O)Nc2ccccc2Cl)cc1F` registered an IC50 of 47.2 nM. Moreover, the inhibition in [1] was 62.7%.

In [1], `C/C(O)=C(\C#N)C(=O)Nc1cc(OC(C)C)c(C(=O)Nc2cccc(F)c2)cc1F` returned an inhibition of 22.1%.

Take `C/C(O)=C(\C#N)C(=O)Nc1cc(OC(C)C)c(C(=O)Nc2c(F)cccc2F)cc1F`: in data set [2], the IC50 stood at 36.2 nM. Also, the inhibition in data set [1] stood at 70.5%.

Consider `COc1cccc(-c2cc(F)c(Nc3ncccc3C(=O)O)c(F)c2)c1` [ASLAN-003], for which the IC50 with HCT-116 is 5100 nM; in the data set on A-375, 700 nM; in the data set on L02 it was 487 nM; in the data set with A549, 900 nM; with Raji it was 300 nM; in the data set with K562, 2700 nM. Also, the IC50 with SK-MEL-28 stood at 1300 nM. The compound further had an inhibition in data set [1] of 66.8%.

For `C/C(O)=C(\C#N)C(=O)Nc1cc(O[C@@H](C)C(F)(F)F)c(C(=O)Nc2c(F)cccc2Br)cc1F`, the IC50 was 526 nM in the data set on L02, 13.9 nM in the data set with Raji and 6.8 nM in data set [2]. Besides, in the data set “physchem”, the solubility turned out to be 1700 µg/mL (≈ 3.1 mM). Also, the selectivity ratio in “in vitro” was found to be 37.7. In data set [1], the inhibition was 93.1%.
